From ChEMBL document CHEMBL4840346, “Amakusamine from a Psammocinia sp. Sponge: Isolation, Synthesis, and SAR Study on the Inhibition of RANKL-Induced Formation of Multinuclear Osteoclasts” (J Nat Prod, 2021)
The source made the active and inactive calls. The rule behind the calls is not given here.

Experiments:
[1] = test system: RAW264.7; experiment: Inhibition of RANKL-induced osteoclastogenesis in mouse RAW264.7 cells assessed as reduction in NFATc1 mRNA expression measured after 24 hrs by RT-PCR analysis; type: functional, cell-based; settings: dose 30-50 µM
[2] = test system: RAW264.7; experiment: Cytotoxicity against mouse RAW264.7 cells at 50 uM by MTT assay; type: cell-based; settings: raw264.7, 50 µM
[3] = test system: RAW264.7; experiment: Inhibition of RANKL-induced osteoclastogenesis in mouse RAW264.7 cells assessed as reduction in number of TRAP-positive multinuclear cells measured after 4 days by TRAP staining based assay; type: functional, cell-based
[4] = test system: RAW264.7; experiment: Inhibition of RANKL-induced osteoclastogenesis in mouse RAW264.7 cells assessed as reduction in number of TRAP-positive multinuclear cells at 50 uM measured after 4 days by TRAP staining based assay; type: functional; settings: for inhibition: time 4.0 day
[5] = test system: RAW264.7; experiment: Cytotoxicity against mouse RAW264.7 cells at 25 uM by MTT assay; type: cell-based; settings: raw264.7, 25 µM

Row | Compound | Activity [2] | IC50 ([3]; Mus musculus, RAW264.7, 96 h) [µM] | further results
1 | Brc1c2c(c(Br)c3[nH]ccc13)OCO2 | Non-Toxic | 10.5 | inhibition [1]: Dose-Dependent Effect; IC50 ([3]; raw264.7): 9.4 µM; inhibition ([3]; time 4.0 day): Dose-Dependent Effect
2 | O=C(c1ccccc1)n1ccc2c(Br)c3c(c(Br)c21)OCO3 | Non-Toxic |  | inhibition [4]: inactive
3 | Clc1c2c(c(Cl)c3[nH]ccc13)OCO2 | Non-Toxic | 40 | 
4 | CCCC(=O)n1ccc2c(Br)c3c(c(Br)c21)OCO3 | Non-Toxic | 7.9 | 
5 | CC(=O)n1ccc2c(Br)c3c(c(Br)c21)OCO3 | Non-Toxic | 11.7 | 
6 | Brc1c2c(cc3cc[nH]c13)OCO2 | Non-Toxic | 35.4 | 
7 | c1cc2cc3c(cc2[nH]1)OCO3 | Non-Toxic |  | inhibition [4]: inactive
8 | CCCCCCCC(=O)n1ccc2c(Br)c3c(c(Br)c21)OCO3 | Non-Toxic | 11.1 | 
9 | NCCc1c[nH]c2c(Br)c3c(c(Br)c12)OCO3 |  | 5.9 | Activity [5]: Toxic
10 | CCCCCCCCCCCCCC(=O)n1ccc2c(Br)c3c(c(Br)c21)OCO3 | Non-Toxic |  | inhibition [4]: inactive
11 | Brc1c2c(cc3[nH]ccc13)OCO2 | Non-Toxic | 16.8 | 
12 | COc1c(OC)c(Br)c2[nH]ccc2c1Br | Non-Toxic | 6.3 | 
13 | O=Cc1c[nH]c2c(Br)c3c(c(Br)c12)OCO3 | Non-Toxic | 13.9 | 
14 | Brc1[nH]c2cc3c(cc2c1Br)OCO3 | Non-Toxic |  | inhibition at 50 µM ([4]; RAW264.7, 96 h, time 4 day): 40%
15 | Cc1c[nH]c2c(Br)c3c(c(Br)c12)OCO3 | Non-Toxic | 8.1 | 
16 | Brc1c2c(c(Br)c3c1OCO3)NCC2 | Non-Toxic | 25.6 | 
17 | OCc1c[nH]c2c(Br)c3c(c(Br)c12)OCO3 | Non-Toxic | 10 | 
